{"source": "paper PMC5216742", "about": "“Discovery and characterization of a novel potent type II native and mutant BCR-ABL inhibitor (CHMFL-074) for Chronic Myeloid Leukemia (CML)” (Oncotarget, 2016)", "key": {"[1]": {"system": "BCR-ABL positive CML patient primary cells", "assay": "Patient primary cell proliferation assay", "format": "cell-based", "conditions": "Homo sapiens, read-out: half effective inhibitory concentrations", "method": "Mononuclear cells were isolated from CML patients or healthy donors by density-gradient centrifugation through Ficoll (Beijing Solarbio Science & Technology Co., Ltd., Beijing, China) at 400 g for 30 min, followed by two washes in 1× phosphate-buffered saline. Cells were then cultured in liquid culture (RPMI1640, supplemented with 20% FBS). All blood samples from CML patients and healthy donors were obtained through written consent under approval of the Chinese Academy of Sciences Institutional Review Board. The ethics committees approved the consent Procedure. CML primary patient cells were tested in liquid culture (RPMI1640, supplemented with 20% FBS) in the presence of different concentrations of CHMFL-074. The trypan blue exclusion assay was used for quantification of cells for seeding for before Cell-Titer Glo assays (Promega, USA). The Cell-Titer Glo assay was used for proliferation studies and carried out according to manufacturer's instructions. Cell viability is reported as percentages of control (untreated) cells."}, "DDR1": {"target": "T1, DDR1 (Homo sapiens, UniProt Q08345)", "T1 construct": "purchased DiscoveRx (KinomeScan service)", "T1 sequence (Q08345 19-913)": "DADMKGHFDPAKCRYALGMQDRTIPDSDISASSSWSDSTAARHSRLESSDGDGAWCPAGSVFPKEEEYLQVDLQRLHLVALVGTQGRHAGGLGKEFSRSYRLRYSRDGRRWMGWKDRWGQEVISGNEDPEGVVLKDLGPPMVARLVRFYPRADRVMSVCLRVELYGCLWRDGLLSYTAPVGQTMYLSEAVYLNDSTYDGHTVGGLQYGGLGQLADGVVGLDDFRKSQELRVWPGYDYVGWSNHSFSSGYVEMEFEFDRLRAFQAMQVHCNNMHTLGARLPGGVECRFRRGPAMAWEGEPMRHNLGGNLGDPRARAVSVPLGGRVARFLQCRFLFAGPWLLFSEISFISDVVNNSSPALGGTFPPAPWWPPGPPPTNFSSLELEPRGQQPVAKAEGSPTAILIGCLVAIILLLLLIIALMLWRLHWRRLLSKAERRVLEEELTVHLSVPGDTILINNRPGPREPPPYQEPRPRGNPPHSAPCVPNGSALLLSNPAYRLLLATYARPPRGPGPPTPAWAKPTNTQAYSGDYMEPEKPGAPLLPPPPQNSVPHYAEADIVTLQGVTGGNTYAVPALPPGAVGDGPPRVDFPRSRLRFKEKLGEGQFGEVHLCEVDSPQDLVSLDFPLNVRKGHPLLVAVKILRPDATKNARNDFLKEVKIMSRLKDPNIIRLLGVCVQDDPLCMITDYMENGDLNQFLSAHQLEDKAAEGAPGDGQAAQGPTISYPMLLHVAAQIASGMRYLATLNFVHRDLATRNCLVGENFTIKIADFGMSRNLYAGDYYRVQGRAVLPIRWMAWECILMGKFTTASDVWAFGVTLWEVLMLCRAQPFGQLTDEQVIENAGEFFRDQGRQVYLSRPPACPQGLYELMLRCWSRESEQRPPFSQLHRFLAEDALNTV", "assay": "KinomeScan profiling", "format": "binding", "conditions": "1 µM CHMFL-074; read-out: % Control"}, "[2]": {"target": "T2, ABL1(M351T)-phosphorylated (Homo sapiens, UniProt P00519, M351T)", "T2 construct": "purchased DiscoveRx (KinomeScan service)", "assay": "KinomeScan profiling", "format": "binding", "conditions": "1 µM CHMFL-074; read-out: % Control"}, "PDGFRα": {"target": "PDGFRα (Homo sapiens, UniProt P16234)", "sequence (P16234 24-1089)": "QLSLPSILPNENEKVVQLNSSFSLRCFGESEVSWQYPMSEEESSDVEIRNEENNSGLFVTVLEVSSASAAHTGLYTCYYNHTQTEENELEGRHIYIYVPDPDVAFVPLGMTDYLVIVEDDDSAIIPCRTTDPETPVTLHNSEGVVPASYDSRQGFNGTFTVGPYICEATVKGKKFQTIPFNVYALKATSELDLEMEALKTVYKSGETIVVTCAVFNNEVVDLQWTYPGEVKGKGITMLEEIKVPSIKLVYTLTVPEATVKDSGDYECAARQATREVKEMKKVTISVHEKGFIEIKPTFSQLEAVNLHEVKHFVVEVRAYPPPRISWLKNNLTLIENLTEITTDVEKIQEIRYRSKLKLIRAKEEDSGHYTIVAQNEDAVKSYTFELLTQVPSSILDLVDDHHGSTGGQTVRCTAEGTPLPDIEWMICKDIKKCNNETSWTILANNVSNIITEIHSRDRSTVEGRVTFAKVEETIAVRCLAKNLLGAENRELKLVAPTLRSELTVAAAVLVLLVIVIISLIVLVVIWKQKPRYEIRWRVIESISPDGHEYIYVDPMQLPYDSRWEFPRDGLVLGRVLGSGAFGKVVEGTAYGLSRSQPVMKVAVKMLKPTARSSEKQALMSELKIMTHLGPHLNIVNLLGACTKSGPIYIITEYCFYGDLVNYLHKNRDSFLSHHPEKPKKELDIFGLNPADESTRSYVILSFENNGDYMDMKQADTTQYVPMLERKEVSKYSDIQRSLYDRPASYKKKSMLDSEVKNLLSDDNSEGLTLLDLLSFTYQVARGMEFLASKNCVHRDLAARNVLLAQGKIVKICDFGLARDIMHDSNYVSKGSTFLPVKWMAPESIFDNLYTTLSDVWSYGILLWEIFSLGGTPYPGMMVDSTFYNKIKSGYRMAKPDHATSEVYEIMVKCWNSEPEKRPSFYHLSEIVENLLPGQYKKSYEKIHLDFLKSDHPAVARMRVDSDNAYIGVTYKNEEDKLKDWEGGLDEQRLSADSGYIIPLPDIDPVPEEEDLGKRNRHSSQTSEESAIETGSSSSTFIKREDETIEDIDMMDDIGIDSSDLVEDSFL", "assay": "Promega ADP-Glo biochemical kinase assay", "conditions": "100 μM ATP, read-out: IC50 against PDGFRα", "method": "(§1) The ADP-Glo™ kinase assay (Promega, USA) was used to screen CHMFL-074 for its PDGFRα/PDGFRβ inhibition effects. […] The reaction in each tube was started immediately by adding ATP and kept going for an hour under 37°C. After the tube cooled for 5 minutes at room temperature, 5 μL solvent reactions were carried out in a 384-well plate. Then 5 μL of ADP-Glo™ reagent was added into each well to stop the reaction and consume the remaining […] within 40 minutes. […] Luminescence signal was measured with an automated plate reader (Envision, USA) and the dose-response curve was fitted using Prism 5.0 (GraphPad Software Inc., San Diego, CA)."}, "PDGFRβ": {"target": "PDGFRβ (Homo sapiens, UniProt P09619)", "sequence (P09619 33-1106)": "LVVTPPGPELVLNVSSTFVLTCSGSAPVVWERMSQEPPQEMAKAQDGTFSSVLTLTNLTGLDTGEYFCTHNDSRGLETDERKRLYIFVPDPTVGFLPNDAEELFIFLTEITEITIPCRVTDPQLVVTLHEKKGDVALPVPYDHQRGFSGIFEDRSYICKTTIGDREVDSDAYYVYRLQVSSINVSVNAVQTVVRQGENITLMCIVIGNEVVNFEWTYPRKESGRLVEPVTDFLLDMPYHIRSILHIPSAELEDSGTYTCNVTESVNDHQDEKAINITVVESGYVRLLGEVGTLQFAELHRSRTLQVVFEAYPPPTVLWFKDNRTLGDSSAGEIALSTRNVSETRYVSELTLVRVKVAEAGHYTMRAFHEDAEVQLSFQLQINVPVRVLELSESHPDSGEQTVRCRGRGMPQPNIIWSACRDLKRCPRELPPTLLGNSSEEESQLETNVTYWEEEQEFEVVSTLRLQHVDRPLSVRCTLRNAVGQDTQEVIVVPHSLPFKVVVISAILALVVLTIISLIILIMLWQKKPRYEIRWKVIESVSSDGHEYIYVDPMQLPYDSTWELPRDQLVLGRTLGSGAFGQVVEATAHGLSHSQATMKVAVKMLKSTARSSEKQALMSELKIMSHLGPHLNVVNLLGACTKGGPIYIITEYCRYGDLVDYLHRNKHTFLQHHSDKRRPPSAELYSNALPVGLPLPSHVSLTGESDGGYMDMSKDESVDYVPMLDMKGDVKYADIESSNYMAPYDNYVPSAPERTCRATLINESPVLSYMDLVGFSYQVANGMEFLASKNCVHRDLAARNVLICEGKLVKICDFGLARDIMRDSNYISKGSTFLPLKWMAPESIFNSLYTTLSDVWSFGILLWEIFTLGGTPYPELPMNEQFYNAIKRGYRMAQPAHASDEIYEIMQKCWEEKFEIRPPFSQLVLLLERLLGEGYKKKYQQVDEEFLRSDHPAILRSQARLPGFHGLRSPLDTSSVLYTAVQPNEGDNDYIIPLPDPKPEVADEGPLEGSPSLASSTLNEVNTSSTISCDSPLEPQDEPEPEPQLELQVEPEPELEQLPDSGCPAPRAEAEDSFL", "assay": "Promega ADP-Glo biochemical kinase assay", "conditions": "100 μM ATP, read-out: IC50 against PDGFRβ", "method": "as §1"}, "ABL2": {"target": "T3, ABL2 (Homo sapiens, UniProt P42684)", "T3 construct": "purchased DiscoveRx (KinomeScan service)", "assay": "KinomeScan profiling", "format": "binding", "conditions": "1 µM CHMFL-074; read-out: % Control"}, "CHO": {"system": "CHO", "assay": "Anti-proliferation, intact cancer cell lines", "format": "cell-based, Chinese hamster", "conditions": "Cricetulus griseus, 72 h", "method": "The K562 (CML), KU812 (CML), MEG-01 (CML), MV4-11 (AML), MOLM14 (AML), U937 (AML), REC-1 (Human B-cell lymphoma cell), HL-60 (Human promyelocytic leukemia cells), MEC-1(CLL), CHL (Hamster lung cell), CHO (Hamster ovary cell) cell lines were obtained from American Type Culture Collection (Manassas, VA). All the cells were grown in a humidified incubator (Thermo, USA) at 37°C under 5% CO2. CHO cells were maintained in DMEM supplemented with 10% FBS, 1% penicillin/strepto-mycin. MV4-11 (AML) were grown in IMDM supplemented with 10% FBS, 1% penicillin/streptomycin. […] For suspension cells, cells were collected by spinning down at 800 rpm/min for 5 min before use.\nA density of 1 × 10^4 to 2.5 × 10^4 cells/mL cells were mixed with various concentrations of compounds then 100 μL suspension was added to each well and incubated for 72 hours. Cell viability was determined using the CellTiter-Glo assay (Promega, USA) or CCK-8 assay (Beboy, China). Both assays were performed according to the manufacturer instructions. For CellTiter-Glo assay, luminescence was determined in a multi-label reader (Envision, PerkinElmer, USA). […] Data were normalized to control group (DMSO). GI50 were calculated using Prism 6.0 (GraphPad Software, San Diego, CA)."}, "KIT(L576P)": {"target": "T4, KIT(L576P) (Homo sapiens, UniProt P10721, L576P)", "T4 construct": "purchased DiscoveRx (KinomeScan service)", "T4 sequence (P10721 26-976 L576P)": "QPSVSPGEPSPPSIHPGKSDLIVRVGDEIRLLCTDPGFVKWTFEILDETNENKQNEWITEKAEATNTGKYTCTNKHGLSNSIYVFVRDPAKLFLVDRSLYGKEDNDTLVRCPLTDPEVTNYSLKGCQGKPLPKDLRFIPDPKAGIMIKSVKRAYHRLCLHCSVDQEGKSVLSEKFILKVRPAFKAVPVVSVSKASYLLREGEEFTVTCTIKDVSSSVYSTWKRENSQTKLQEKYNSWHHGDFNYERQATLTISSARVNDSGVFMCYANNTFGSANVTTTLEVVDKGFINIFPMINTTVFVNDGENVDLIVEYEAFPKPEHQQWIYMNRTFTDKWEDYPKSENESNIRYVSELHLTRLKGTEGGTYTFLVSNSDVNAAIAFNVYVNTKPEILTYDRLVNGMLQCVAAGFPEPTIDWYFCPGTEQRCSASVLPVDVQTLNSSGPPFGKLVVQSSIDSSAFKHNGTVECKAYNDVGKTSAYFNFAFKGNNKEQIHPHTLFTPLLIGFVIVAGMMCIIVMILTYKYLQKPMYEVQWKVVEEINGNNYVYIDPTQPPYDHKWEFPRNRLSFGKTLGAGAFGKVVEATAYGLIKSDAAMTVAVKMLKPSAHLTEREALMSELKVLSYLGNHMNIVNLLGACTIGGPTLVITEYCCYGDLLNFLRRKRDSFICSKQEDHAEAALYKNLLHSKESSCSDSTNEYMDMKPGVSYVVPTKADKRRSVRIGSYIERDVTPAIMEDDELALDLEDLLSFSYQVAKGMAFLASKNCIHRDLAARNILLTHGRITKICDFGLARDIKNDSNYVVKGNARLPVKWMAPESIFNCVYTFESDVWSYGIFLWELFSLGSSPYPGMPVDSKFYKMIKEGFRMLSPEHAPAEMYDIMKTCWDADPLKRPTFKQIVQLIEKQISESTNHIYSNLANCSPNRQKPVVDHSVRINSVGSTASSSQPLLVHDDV", "assay": "KinomeScan profiling", "format": "binding", "conditions": "1 µM CHMFL-074; read-out: % Control"}}, "data": [{"molecule": "Cc1ccc(NC(=O)c2ccc(CN3CCN(C)CC3)c(C(F)(F)F)c2)cc1OC1CCN(C(=O)c2cccnc2)CC1", "note": "[CHMFL-074]", "values": [{"measurement": "IC50", "setting": "[1]", "result": "300 to 1000", "unit": "nM"}, {"measurement": "remaining binding at 1 µM", "setting": "DDR1", "result": "< 1", "unit": "%"}, {"measurement": "remaining binding at 1 µM", "setting": "[2]", "result": 1, "unit": "%"}, {"measurement": "IC50", "setting": "PDGFRα", "result": 71, "unit": "nM"}, {"measurement": "IC50", "setting": "PDGFRβ", "result": 88, "unit": "nM"}, {"measurement": "remaining binding at 1 µM", "setting": "ABL2", "result": 0.8, "unit": "%"}, {"measurement": "GI50", "setting": "CHO", "result": "> 10", "unit": "µM"}, {"measurement": "remaining binding at 1 µM", "setting": "KIT(L576P)", "result": 1, "unit": "%"}]}]}
